What was measured:
physchem = type: physicochemical
Procedure: The berberine partition coefficient procedure was used to assess the properties of berberine, which was determined to be an overall hydrophilic molecule. […] The solution was shaken by hand for 30 seconds and allowed to stand for 5 minutes. […] The solution was mixed for one hour using a rotating tube inverter (VWR, 13916-822). A blank sample containing water and octanol (0.7 mL of each) was prepared. […] The sample was monitored using UV/V is at wavelengths 230/600 nm and 280/600 nm. Autosampler temperature was maintained at 24° C. and column was at 30° C. The two layers of the sample were injected by adjusting the injection needle height. 0 mm was used for the water layer and +11 mm was used for the octanol layer. The retention time for berberine elution is 1.4 minutes and peak areas were assigned using the onboard Agilent software based upon absorbance at 230 nm. A HPLC-UV chromatogram was recorded for each layer of the partition according the procedure described above. The area under the peak between 1.2-2.2 minutes in the chromatogram was used as a measure of concentration of berberine. A linear relationship was assumed to exist between absorbance and concentration of berberine at the concentrations evaluated. […] The area-blank (cps) was used directly in the equation below.

[1] = tested on: male Zucker rat, a model of type-2 diabetes and metabolic disorder; assay: Effect of berberine, metformin and simvastatin on body mass, lipid biomarkers, food and water intake, clinical chemistry (Example 18); type: in vivo, obese male Zucker fa/fa rats; settings: Zucker rats, Days 0 to 28
Procedure: All in vivo animal husbandry, treatment regiments, and sample collections were completed by InterVivo. The study was completed using obese male Zucker fa/fa rats (Charles River) at 10 weeks of age. […] Shaving was performed under anaesthesia one day prior to initiation of test article administration. The area was further shaven, as needed, over the course of the dosing period to ensure accurate drug application and absorption. For dosing procedures, animals were restrained and the transdermal test articles applied in a uniform layer over the entire shaved area. The shaved administration area was cleaned daily with paper towel before the subsequent transdermal dose was administered. Animals receiving test articles via oral gavage were restrained, and a ball-tipped gavage needle (18G) attached to a syringe containing the dosing solution was first inserted into the mouth, and then into the stomach. To determine the appropriate depth of insertion of the needle, the position corresponding to the last rib was measured prior to insertion. […] Group A), oral administration of berberine (180 mg/kg/dose; […] Group C), and oral administration of the vehicle (Group D) (Table 19). […] Group F), or with orally-administered metformin (200 mg/kg/dose; Group G). […] On Day 28, the animals were dosed in the morning only, prior to euthanasia and tissue collection. Animal body weights were performed once weekly from Day −34 to −2 and daily from Day −1 to 28. Rats were weighed, and the scales were operated and maintained, according to standard operating procedures. Food and water consumption measurements were taken over a 24 hour period, once weekly, from Days 0 to 28. Blood was collected via tail nick on Day-1 to determine unfasted blood glucose level for group allocation. Whole blood was collected via the saphenous vein or other appropriate route on Days 0, 7, 14, 21 and 28 immediately prior to test article administration. […] On Day 28, subjects were anaesthetized with isoflurane, and whole blood was collected via cardiac puncture 2.5 hours (+/−5 minutes) following treatment administration on this day. […]

[2] = uptake inhibited by P-gp-mediated efflux; cited from earlier work
[3] = cited from earlier work
[4] = first four weeks of treatment, 0.5 g t.i.d.

COc1ccc2cc3[n+](cc2c1OC)CCc1cc2c(cc1-3)OCO2 [berberine, Berberine]
berberine in the lipophilic octanol solvent (physchem): ~3% | logD (physchem): -0.63 | Octanol area (cps) 230 nm (physchem; Partition): 1763 cps | Water area (cps) 230 nm (physchem; Partition): 34696 cps | Octanol area (cps) 230 nm (physchem; Partition minus blank): 807 cps | Water area (cps) 230 nm (physchem; Partition minus blank): 34342 cps | berberine remaining within the water layer (physchem; octanol/water): 97% | cholesterol and triglyceride blood counts (in words) [1]: reduced cholesterol and triglyceride blood counts | glucose levels (in words) ([1]; non-fasting): largest reduction in glucose levels | bioavailability [2]: less than 5% | abdominal pain, percentage of patients [3, 4]: 3.4% | constipation, percentage of patients [3, 4]: 6.9% | diarrhea, percentage of patients [3, 4]: 10.3% | flatulence, percentage of patients [3, 4]: 19.0% | patients with adverse gastrointestinal side-effects ([3]; type 2 diabetes patients, 13 week berberine treatment): 34.5%

Reference: patent publication US20180235870A1, “TRANSDERMAL FORMULATIONS FOR DELIVERY OF BERBERINE COMPOUNDS, AND THEIR USE IN THE TREATMENT OF BERBERINE-RESPONSIVE DISEASES AND CONDITIONS” (DELIVRA INC., priority 2015, published 2018)
